Laboratory results from PMC5159281 (Bioorganic & medicinal chemistry letters, 2016).

Columns and labels:
CRL-8155 cells = test: cells; details: Homo sapiens, CRL8155, read-out: CRL8155 EC50
HepG2 cells = test: cells; details: Homo sapiens, HepG2, read-out: HepG2 EC50
[1] = test system: P. falciparum blood stage; details: result in words
recombinant PfPKG = recombinant PfPKG (Plasmodium falciparum, UniProt Q8I719); test: biochemical
PfCDPK1 = PfCDPK1 (Plasmodium falciparum, UniProt P62344); test: biochemical
Chain of PfCDPK1 (P62344 whole entry): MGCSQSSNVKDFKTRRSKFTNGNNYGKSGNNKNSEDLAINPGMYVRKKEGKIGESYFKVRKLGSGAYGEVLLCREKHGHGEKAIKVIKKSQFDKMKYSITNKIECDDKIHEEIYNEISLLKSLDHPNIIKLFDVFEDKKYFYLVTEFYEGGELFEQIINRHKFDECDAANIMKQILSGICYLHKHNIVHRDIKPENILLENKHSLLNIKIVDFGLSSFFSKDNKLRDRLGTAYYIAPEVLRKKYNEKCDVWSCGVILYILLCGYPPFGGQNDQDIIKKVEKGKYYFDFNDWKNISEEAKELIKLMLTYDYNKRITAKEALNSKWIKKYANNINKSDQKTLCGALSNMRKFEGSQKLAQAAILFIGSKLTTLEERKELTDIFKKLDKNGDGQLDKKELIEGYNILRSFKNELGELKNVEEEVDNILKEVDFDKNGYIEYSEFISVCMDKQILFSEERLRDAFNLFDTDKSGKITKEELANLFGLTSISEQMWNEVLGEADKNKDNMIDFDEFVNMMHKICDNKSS

recombinant PfCDPK4 = recombinant PfCDPK4 (Plasmodium falciparum, UniProt Q8IBS5); test: biochemical
Chain of recombinant PfCDPK4 (Q8IBS5 whole entry): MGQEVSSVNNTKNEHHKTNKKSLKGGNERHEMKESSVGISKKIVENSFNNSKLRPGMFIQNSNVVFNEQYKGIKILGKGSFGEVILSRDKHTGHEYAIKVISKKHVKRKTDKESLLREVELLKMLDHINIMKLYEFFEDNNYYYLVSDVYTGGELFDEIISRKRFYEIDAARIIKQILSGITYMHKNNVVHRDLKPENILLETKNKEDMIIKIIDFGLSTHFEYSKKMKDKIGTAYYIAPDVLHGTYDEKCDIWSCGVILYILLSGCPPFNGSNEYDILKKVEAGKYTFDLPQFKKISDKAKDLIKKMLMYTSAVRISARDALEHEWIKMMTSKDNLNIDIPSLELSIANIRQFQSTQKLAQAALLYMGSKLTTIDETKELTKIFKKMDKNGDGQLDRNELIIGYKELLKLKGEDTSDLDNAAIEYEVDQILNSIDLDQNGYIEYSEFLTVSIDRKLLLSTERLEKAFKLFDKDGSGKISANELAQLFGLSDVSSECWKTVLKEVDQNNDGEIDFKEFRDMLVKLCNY

[2] = cited from earlier work
hERG = hERG (Homo sapiens, UniProt Q12809); details: cited from earlier work
Chain of hERG (Q12809 whole entry): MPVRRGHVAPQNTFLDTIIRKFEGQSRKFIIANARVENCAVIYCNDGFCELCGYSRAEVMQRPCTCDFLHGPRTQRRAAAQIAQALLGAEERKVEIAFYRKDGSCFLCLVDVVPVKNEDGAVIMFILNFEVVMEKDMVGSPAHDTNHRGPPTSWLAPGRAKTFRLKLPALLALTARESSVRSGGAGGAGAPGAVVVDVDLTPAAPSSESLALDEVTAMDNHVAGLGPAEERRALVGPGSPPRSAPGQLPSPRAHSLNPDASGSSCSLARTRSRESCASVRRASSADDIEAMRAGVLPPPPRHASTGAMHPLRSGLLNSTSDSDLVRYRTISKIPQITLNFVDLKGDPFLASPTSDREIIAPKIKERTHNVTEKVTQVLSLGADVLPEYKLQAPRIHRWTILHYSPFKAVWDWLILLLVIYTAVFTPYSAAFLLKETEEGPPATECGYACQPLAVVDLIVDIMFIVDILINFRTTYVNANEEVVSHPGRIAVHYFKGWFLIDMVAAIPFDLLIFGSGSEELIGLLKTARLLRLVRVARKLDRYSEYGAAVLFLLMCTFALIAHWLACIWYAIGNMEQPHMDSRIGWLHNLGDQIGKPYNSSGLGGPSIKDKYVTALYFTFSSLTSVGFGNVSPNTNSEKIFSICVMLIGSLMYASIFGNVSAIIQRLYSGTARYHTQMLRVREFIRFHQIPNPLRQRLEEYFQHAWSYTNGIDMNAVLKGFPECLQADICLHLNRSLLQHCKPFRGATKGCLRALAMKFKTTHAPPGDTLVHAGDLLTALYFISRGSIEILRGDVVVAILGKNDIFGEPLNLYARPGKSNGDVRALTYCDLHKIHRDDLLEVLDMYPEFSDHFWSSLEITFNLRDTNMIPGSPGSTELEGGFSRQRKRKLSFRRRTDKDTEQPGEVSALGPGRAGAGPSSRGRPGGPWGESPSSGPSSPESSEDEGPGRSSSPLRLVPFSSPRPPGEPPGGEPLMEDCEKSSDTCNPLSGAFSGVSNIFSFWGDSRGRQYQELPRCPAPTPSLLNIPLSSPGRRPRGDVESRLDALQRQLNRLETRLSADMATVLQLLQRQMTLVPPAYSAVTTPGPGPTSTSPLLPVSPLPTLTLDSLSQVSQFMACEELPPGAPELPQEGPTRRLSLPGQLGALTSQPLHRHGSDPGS

Chain of recombinant PfPKG (Q8I719 whole entry): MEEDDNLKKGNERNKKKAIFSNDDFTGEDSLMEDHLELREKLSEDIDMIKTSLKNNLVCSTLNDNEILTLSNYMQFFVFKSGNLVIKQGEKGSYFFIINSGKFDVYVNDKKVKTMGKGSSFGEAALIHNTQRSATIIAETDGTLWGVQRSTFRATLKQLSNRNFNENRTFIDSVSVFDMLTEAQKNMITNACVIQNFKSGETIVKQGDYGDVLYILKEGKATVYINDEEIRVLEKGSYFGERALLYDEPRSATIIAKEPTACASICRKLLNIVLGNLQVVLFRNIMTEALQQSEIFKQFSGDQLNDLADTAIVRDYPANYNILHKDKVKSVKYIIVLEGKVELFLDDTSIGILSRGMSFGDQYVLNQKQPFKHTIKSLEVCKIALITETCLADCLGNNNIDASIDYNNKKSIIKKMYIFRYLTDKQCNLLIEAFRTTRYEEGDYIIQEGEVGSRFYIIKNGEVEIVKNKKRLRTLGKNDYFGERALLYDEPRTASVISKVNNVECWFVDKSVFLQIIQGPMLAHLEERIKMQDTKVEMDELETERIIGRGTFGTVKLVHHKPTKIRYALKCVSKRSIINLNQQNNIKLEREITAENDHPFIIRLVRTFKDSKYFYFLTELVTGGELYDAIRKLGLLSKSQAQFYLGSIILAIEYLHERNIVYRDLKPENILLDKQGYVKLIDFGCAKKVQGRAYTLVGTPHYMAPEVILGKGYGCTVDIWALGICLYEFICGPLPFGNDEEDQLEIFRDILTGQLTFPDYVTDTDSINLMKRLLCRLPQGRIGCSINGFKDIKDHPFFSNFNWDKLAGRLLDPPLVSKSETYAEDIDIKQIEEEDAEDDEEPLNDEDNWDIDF

CC(C)(C)n1nc(-c2ccc3cc(O)ccc3c2)c(C(N)=O)c1N [Compound 2]
EC50 (CRL-8155 cells): > 30 µM
EC50 (HepG2 cells): > 30 µM
anti-erythrocytic stage inhibition [1]: some observable anti-erythrocytic stage inhibition

COc1ccc2cc(-c3nn(C(C)(C)C)c(N)c3C(N)=O)cnc2c1 [Compound 4]
EC50 (CRL-8155 cells): > 30 µM
EC50 (HepG2 cells): > 30 µM

CCOc1ccc2cc(-c3nn(C(C)(C)C)c(N)c3C(N)=O)ccc2c1 [Compound 5]
IC50 (recombinant PfPKG): 2.37 µM
IC50 (PfCDPK1): 0.287 µM

CCOc1ccc2cc(-c3nn(C(C)(C)C)c(N)c3C(N)=O)cnc2c1 [Compound 6]
EC50 (HepG2 cells): > 30 µM
anti-erythrocytic stage inhibition [1]: some observable anti-erythrocytic stage inhibition

CC(C)(C)n1nc(-c2cnc3cc(OC4CC4)ccc3c2)c(C(N)=O)c1N [Compound 8]
IC50 (PfCDPK1): 0.225 µM

CCOc1ccc2cc(-c3nn(C(C)C)c(N)c3C(N)=O)cnc2c1 [Compound 14]
EC50 (CRL-8155 cells): > 30 µM
EC50 (HepG2 cells): > 30 µM

CCOc1ccc2cc(-c3nn(CC(C)(C)CO)c(N)c3C(N)=O)cnc2c1 [Compound 17]
EC50 (CRL-8155 cells): > 30 µM
EC50 (HepG2 cells): > 30 µM

CCOc1ccc2cc(-c3nn(C4CCOC4)c(N)c3C(N)=O)ccc2n1 (centres unmarked) [Compound 25]
IC50 (recombinant PfCDPK4): 0.103 µM
IC50 (PfCDPK1): 0.468 µM

CCOc1ccc2cc(-c3nn(C4CCCCC4)c(N)c3C(N)=O)ccc2n1 [Compound 26]
EC50 (CRL-8155 cells): > 30 µM
EC50 (HepG2 cells): > 30 µM
anti-erythrocytic stage inhibition [1]: some observable anti-erythrocytic stage inhibition

CC(C)n1nc(-c2ccc3nc(OC4CCC4)ccc3c2)c(C(N)=O)c1N [Compound 27]
IC50 (PfCDPK1): 0.159 µM

CCOc1ccc2cc(-c3nn(CC4CCN(C)CC4)c4ncnc(N)c34)ccc2c1 [Compound 1294]
toxicity ([2]; initial mouse studies): low toxicity
oral availability ([2]; mouse): orally available
hERG inhibitory activity (hERG): hERG inhibitory activity at therapeutic concentrations
